Active and inactive are the calls of the source. The rule behind the calls is not given here.
Tests used:
Rattus norvegicus [1] = assay: Antiobesity activity in Sprague-Dawley rat assessed as reduction of food intake at 3 mg/kg, sc qd measured after 24 to 48 hrs relative to control; type: functional; settings: route subcutaneous
Melanocortin receptor 3 = Melanocortin receptor 3 (Homo sapiens, UniProt P41968); assay: Displacement of [125I]-NAD-alpha-MSH from human recombinant MC3 receptor expressed in BHK570 cells after 1 hr in presence of ovalbumin; type: cell-based
Melanocortin receptor 4 [2] = target: T1, Melanocortin receptor 4 (Homo sapiens, UniProt P32245); assay: Agonist activity at human recombinant MC4 receptor expressed in BHK570 cells assessed as induction of […] accumulation in presence of 0.1% human serum albumin; type: functional, cell-based
Rattus norvegicus [3] = assay: Antiobesity activity in Sprague-Dawley rat assessed as reduction of food intake at 3 mg/kg, sc qd measured after 7 to 24 hrs relative to control; type: functional; set-up: scale not given: the % may be the effect or the level left; settings: route subcutaneous
[4] = target: Melanocyte-stimulating hormone receptor (Homo sapiens, UniProt Q01726); assay: Displacement of [125I]-NAD-alpha-MSH from human recombinant MC1 receptor expressed in BHK570 cells after 90 mins in presence of ovalbumin; type: cell-based
Melanocortin receptor 5 = Melanocortin receptor 5 (Homo sapiens, UniProt P33032); assay: Displacement of [125I]-NAD-alpha-MSH from human recombinant MC3 receptor human MC5 expressed in BHK570 cells after 1 hr in presence of ovalbumin; type: cell-based
Rattus norvegicus [5] = assay: Antiobesity activity in Sprague-Dawley rat assessed as reduction of food intake at 3 mg/kg, sc qd measured up to 7 hrs relative to control; type: functional; set-up: scale not given: the % may be the effect or the level left; settings: route subcutaneous
Melanocortin receptor 4 [6] = target: T1, Melanocortin receptor 4; assay: Displacement of [125I]-NAD-alpha-MSH from MC4 receptor after 2 hrs by gamma counting in presence of ovalbumin
[7] = target: Melanocortin receptor 4 (Rattus norvegicus) (UniProt P70596); assay: Agonist activity at rat MC4 receptor; type: functional
Chain of Melanocortin receptor 4 (Rattus norvegicus) (P70596 whole entry): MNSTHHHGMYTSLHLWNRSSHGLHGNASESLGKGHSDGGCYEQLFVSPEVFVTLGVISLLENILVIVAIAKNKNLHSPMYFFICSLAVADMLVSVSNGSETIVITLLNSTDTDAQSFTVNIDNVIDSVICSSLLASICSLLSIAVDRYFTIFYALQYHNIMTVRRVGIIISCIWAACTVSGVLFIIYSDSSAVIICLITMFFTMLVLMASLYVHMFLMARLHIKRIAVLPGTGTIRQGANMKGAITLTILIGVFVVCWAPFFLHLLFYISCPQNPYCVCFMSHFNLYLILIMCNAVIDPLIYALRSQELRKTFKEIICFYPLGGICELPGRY

Chain of Melanocortin receptor 3 (P41968 whole entry): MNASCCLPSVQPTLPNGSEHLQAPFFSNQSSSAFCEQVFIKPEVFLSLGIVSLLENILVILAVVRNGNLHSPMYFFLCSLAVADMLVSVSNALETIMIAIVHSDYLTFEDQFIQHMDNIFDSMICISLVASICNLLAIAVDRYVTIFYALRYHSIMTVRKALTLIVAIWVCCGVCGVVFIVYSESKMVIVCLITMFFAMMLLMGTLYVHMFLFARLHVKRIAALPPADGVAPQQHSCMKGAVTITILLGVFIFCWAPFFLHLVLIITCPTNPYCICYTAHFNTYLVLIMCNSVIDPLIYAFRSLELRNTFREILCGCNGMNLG
Chain of Melanocortin receptor 5 (P33032 whole entry): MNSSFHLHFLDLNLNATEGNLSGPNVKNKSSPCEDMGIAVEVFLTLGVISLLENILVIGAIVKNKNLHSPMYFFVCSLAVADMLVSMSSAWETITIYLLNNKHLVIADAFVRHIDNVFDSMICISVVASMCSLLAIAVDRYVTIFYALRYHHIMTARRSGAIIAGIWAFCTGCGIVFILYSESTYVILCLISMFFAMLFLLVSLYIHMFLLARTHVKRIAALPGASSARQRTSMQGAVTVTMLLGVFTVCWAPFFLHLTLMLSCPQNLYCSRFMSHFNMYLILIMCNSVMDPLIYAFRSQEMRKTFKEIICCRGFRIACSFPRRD
Chain of Melanocyte-stimulating hormone receptor (Q01726 whole entry): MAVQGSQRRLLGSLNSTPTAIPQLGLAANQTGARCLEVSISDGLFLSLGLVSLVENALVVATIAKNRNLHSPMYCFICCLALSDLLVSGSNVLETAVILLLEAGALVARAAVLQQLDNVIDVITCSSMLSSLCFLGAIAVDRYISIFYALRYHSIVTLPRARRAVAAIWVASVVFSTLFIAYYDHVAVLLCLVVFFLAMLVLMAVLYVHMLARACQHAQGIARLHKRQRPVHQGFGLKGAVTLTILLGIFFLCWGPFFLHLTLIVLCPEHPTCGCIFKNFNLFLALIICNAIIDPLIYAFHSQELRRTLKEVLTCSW
T1 sequence (P32245 whole entry): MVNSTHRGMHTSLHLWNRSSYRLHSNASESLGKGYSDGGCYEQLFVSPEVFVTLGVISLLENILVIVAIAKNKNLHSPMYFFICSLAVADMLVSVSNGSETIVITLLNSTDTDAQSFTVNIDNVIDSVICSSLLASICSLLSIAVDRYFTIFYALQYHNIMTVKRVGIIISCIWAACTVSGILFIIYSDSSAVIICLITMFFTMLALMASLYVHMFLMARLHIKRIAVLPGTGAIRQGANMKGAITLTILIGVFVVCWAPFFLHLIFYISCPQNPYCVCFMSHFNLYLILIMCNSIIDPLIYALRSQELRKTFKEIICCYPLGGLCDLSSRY

Structure (SMILES) | Ki (Melanocortin receptor 3) | Ki [4] | Ki (Melanocortin receptor 5) | Ki (Melanocortin receptor 4 [6]) | Activity [7] | Food intake relative to control (Rattus norvegicus [1]) | EC50 (Melanocortin receptor 4 [2]) | Activity (Rattus norvegicus [3]) | Activity (Rattus norvegicus [5])
CCCC[C@H](NC(=O)[C@H](CN(C)C)NC(=O)[C@H](Cc1cnc[nH]1)NC(=O)[C@H](CCC(N)=O)NC(=O)[C@H](CO)NC(=O)CNC(=O)COCCOCCNC(=O)CCCCCCCCCCCCCCCc1nnn[nH]1)C(=O)N[C@H]1CCC(=O)NCCCC[C@@H](C(N)=O)NC(=O)[C@H](Cc2c[nH]c3ccccc23)NC(=O)[C@H](CCCNC(=N)N)NC(=O)[C@@H](Cc2ccccc2)NC(=O)[C@@H]2C[C@@H](O)CN2C1=O | 11 nM | 440 nM | 2.9 nM | 0.13 nM | – | 82% | 130 nM | 60% | 62%
CCCC[C@H](NC(=O)[C@H](CN)NC(=O)[C@H](Cc1cnc[nH]1)NC(=O)[C@H](CCC(N)=O)NC(=O)[C@H](CO)NC(=O)CNC(=O)COCCOCCNC(=O)CCCCCCCCCCCCCCCc1nnn[nH]1)C(=O)N[C@H]1CCC(=O)NCCCC[C@@H](C(N)=O)NC(=O)[C@H](Cc2c[nH]c3ccccc23)NC(=O)[C@H](CCCN=C(N)N)NC(=O)[C@@H](Cc2ccccc2)NC(=O)[C@@H]2C[C@@H](O)CN2C1=O | 42 nM | 400 nM | 10 nM | 0.17 nM | – | – | 62 nM | – | –
CCCC[C@H](NC(=O)[C@H](CCC(=O)O)NC(=O)[C@H](CCCN=C(N)N)NC(=O)[C@H](CCC(=O)O)NC(=O)[C@H](CCC(=O)O)NC(=O)CNC(=O)COCCOCCNC(=O)CCCCCCCCCCCCCCCc1nnn[nH]1)C(=O)N[C@H]1CCC(=O)NCCCC[C@@H](C(N)=O)NC(=O)[C@H](Cc2c[nH]c3ccccc23)NC(=O)[C@H](CCCN=C(N)N)NC(=O)[C@@H](Cc2ccccc2)NC(=O)[C@@H]2C[C@@H](O)CN2C1=O | 1100 nM | > 10000 nM | 270 nM | 35 nM | – | – | 270 nM | – | –
CCCC[C@H](NC(=O)[C@H](CNC(C)C)NC(=O)[C@H](Cc1cnc[nH]1)NC(=O)[C@H](CCC(N)=O)NC(=O)[C@H](CO)NC(=O)CNC(=O)COCCOCCNC(=O)CCCCCCCCCCCCCCCc1nnn[nH]1)C(=O)N[C@H]1CCC(=O)NCCCC[C@@H](C(N)=O)NC(=O)[C@H](Cc2c[nH]c3ccccc23)NC(=O)[C@H](CCCNC(=N)N)NC(=O)[C@@H](Cc2ccccc2)NC(=O)[C@@H]2C[C@@H](O)CN2C1=O | 13 nM | 270 nM | 3.4 nM | 0.26 nM | – | 72% | 15 nM | 40% | 50%
CCCC[C@H](NC(=O)[C@H](CO)NC(=O)[C@H](Cc1cnc[nH]1)NC(=O)[C@H](CCC(N)=O)NC(=O)[C@H](CO)NC(=O)CNC(C)=O)C(=O)N[C@H]1CCC(=O)NCCCC[C@@H](C(N)=O)NC(=O)[C@H](Cc2c[nH]c3ccccc23)NC(=O)[C@H](CCCNC(=N)N)NC(=O)[C@@H](Cc2ccccc2)NC(=O)[C@@H]2C[C@@H](O)CN2C1=O | 45 nM | 200 nM | 5.1 nM | 4.6 nM | – | 103% | 2 nM | 99% | 55%
CCCC[C@H](NC(=O)[C@H](CCCNC(=N)N)NC(=O)[C@H](Cc1cnc[nH]1)NC(=O)[C@H](CCC(N)=O)NC(=O)[C@H](CO)NC(=O)CNC(=O)COCCOCCNC(=O)CCCCCCCCCCCCCCCc1nnn[nH]1)C(=O)N[C@H]1CCC(=O)NCCCC[C@@H](C(N)=O)NC(=O)[C@H](Cc2c[nH]c3ccccc23)NC(=O)[C@H](CCCNC(=N)N)NC(=O)[C@@H](Cc2ccccc2)NC(=O)[C@@H]2C[C@@H](O)CN2C1=O | 27 nM | 44 nM | 3 nM | 0.08 nM | – | 83% | 4.7 nM | 51% | 46%
CCCCCCCCCCCCCCCC(=O)NCC(=O)NCC(=O)NCC(=O)NCC(=O)NCC(=O)N[C@@H](CCCC)C(=O)N[C@H]1CCC(=O)NCCCC[C@@H](C(N)=O)NC(=O)[C@H](Cc2c[nH]c3ccccc23)NC(=O)[C@H](CCCNC(=N)N)NC(=O)[C@@H](Cc2ccccc2)NC(=O)[C@@H]2C[C@@H](O)CN2C1=O | 8 nM | 130 nM | 3 nM | 0.33 nM | – | 94% | 1 nM | 76% | 110%
CCCC[C@H](NC(=O)[C@H](CO)NC(=O)[C@H](CCCCN=C(N)N)NC(=O)[C@H](CCC(N)=O)NC(=O)[C@H](CO)NC(=O)CNC(C)=O)C(=O)N[C@H]1CCC(=O)NCCCC[C@@H](C(N)=O)NC(=O)[C@H](Cc2c[nH]c3ccccc23)NC(=O)[C@H](CCCN=C(N)N)NC(=O)[C@@H](Cc2ccccc2)NC(=O)[C@@H]2C[C@@H](O)CN2C1=O | 22 nM | 73 nM | 4.3 nM | 1 nM | – | – | 0.47 nM | – | –
CCCC[C@H](NC(=O)[C@@H](N)CNC(=O)[C@H](Cc1cnc[nH]1)NC(=O)[C@H](CCC(N)=O)NC(=O)[C@H](CO)NC(=O)CNC(=O)COCCOCCNC(=O)CCCCCCCCCCCCCCCc1nnn[nH]1)C(=O)N[C@H]1CCC(=O)NCCCC[C@@H](C(N)=O)NC(=O)[C@H](Cc2c[nH]c3ccccc23)NC(=O)[C@H](CCCN=C(N)N)NC(=O)[C@@H](Cc2ccccc2)NC(=O)[C@@H]2C[C@@H](O)CN2C1=O | 121 nM | 700 nM | 40 nM | 0.17 nM | – | – | 85 nM | – | –
CCCC[C@H](NC(=O)[C@H](CO)NC(=O)[C@H](Cc1cnc[nH]1)NC(=O)[C@H](CCC(N)=O)NC(=O)[C@H](CO)NC(=O)CNC(=O)COCCOCCNC(=O)CCCCCCCCCCCCCCCc1nnn[nH]1)C(=O)N[C@H]1CCC(=O)NCCCC[C@@H](C(N)=O)NC(=O)[C@H](Cc2c[nH]c3ccccc23)NC(=O)[C@H](CCCNC(=N)N)NC(=O)[C@@H](Cc2ccccc2)NC(=O)[C@@H]2C[C@@H](O)CN2C1=O | 67 nM | 1200 nM | 15 nM | 0.2 nM | – | 92% | 170 nM | 56% | 79%

Continued, in another order:

Ki (Melanocortin receptor 3) | Ki [4] | Ki (Melanocortin receptor 5) | Ki (Melanocortin receptor 4 [6]) | Activity [7] | Structure (SMILES) | Food intake relative to control (Rattus norvegicus [1]) | EC50 (Melanocortin receptor 4 [2]) | Activity (Rattus norvegicus [3]) | Activity (Rattus norvegicus [5])
450 nM | 8100 nM | 110 nM | 7.8 nM | – | CCCC[C@H](NC(=O)[C@H](CCC(=O)O)NC(=O)[C@H](Cc1c[nH]cn1)NC(=O)[C@H](CCC(=O)O)NC(=O)[C@H](CCC(=O)O)NC(=O)CNC(=O)COCCOCCNC(=O)CCCCCCCCCCCCCCCc1nnn[nH]1)C(=O)N[C@H]1CCC(=O)NCCCC[C@@H](C(N)=O)NC(=O)[C@H](Cc2c[nH]c3ccccc23)NC(=O)[C@H](CCCNC(=N)N)NC(=O)[C@@H](Cc2ccccc2)NC(=O)[C@@H]2C[C@@H](O)CN2C1=O | 88% | – | 79% | 75%
– | – | – | – | Active | CCCC[C@H](NC(=O)[C@@H](N)CNC(=O)[C@H](Cc1cnc[nH]1)NC(=O)[C@H](CCC(N)=O)NC(=O)[C@H](CO)NC(=O)CNC(=O)COCCOCCNC(=O)CCCCCCCCCCCCCCCc1nnn[nH]1)C(=O)N[C@H]1CCC(=O)NCCCC[C@@H](C(N)=O)NC(=O)[C@H](Cc2c[nH]c3ccccc23)NC(=O)[C@H](CCCNC(=N)N)NC(=O)[C@@H](Cc2ccccc2)NC(=O)[C@@H]2C[C@@H](O)CN2C1=O | 81% | – | 54% | 82%
1600 nM | > 10000 nM | 710 nM | 250 nM | – | CCCC[C@H](NC(=O)[C@H](CCC(=O)O)NC(=O)[C@H](CCC(=O)O)NC(=O)[C@H](CCC(=O)O)NC(=O)[C@H](CCC(=O)O)NC(=O)CNC(=O)COCCOCCNC(=O)CCCCCCCCCCCCCCCc1nnn[nH]1)C(=O)N[C@H]1CCC(=O)NCCCC[C@@H](C(N)=O)NC(=O)[C@H](Cc2c[nH]c3ccccc23)NC(=O)[C@H](CCCNC(=N)N)NC(=O)[C@@H](Cc2ccccc2)NC(=O)[C@@H]2C[C@@H](O)CN2C1=O | – | – | – | –
2 nM | 3.2 nM | 0.47 nM | 0.37 nM | – | CCCCCCCCCCCCCCCC(=O)NCC(=O)N[C@@H](CO)C(=O)N[C@@H](CCC(N)=O)C(=O)N[C@@H](CCCCNC(=N)N)C(=O)N[C@@H](CO)C(=O)N[C@@H](CCCC)C(=O)N[C@H]1CCC(=O)NCCCC[C@@H](C(N)=O)NC(=O)[C@H](Cc2c[nH]c3ccccc23)NC(=O)[C@H](CCCNC(=N)N)NC(=O)[C@@H](Cc2ccccc2)NC(=O)[C@@H]2C[C@@H](O)CN2C1=O | 82% | 0.04 nM | 57% | 71%
2.5 nM | 8 nM | 1.6 nM | 0.12 nM | – | CCCCCCCCCCCCCCCC(=O)NCC(=O)N[C@@H](CO)C(=O)N[C@@H](CCC(N)=O)C(=O)N[C@@H](Cc1cnc[nH]1)C(=O)N[C@@H](CO)C(=O)N[C@@H](CCCC)C(=O)N[C@H]1CCC(=O)NCCCC[C@@H](C(N)=O)NC(=O)[C@H](Cc2c[nH]c3ccccc23)NC(=O)[C@H](CCCNC(=N)N)NC(=O)[C@@H](Cc2ccccc2)NC(=O)[C@@H]2C[C@@H](O)CN2C1=O | 81% | 0.17 nM | 58% | 63%

From ChEMBL document CHEMBL2069212, “Identification and in vivo and in vitro characterization of long acting and melanocortin 4 receptor (MC4-R) selective α-melanocyte-stimulating hormone (α-MSH) analogues” (J Med Chem, 2012)
